In patent US20060094676A1, “Compositions and methods for treating cancer using compositions comprising an inhibitor of endothelin receptor activity” (priority 2004, published 2006):

Experiments:
caspase 3 = assay: Western blot for caspase 3 activation; assay type: cell-based; conditions: BQ788-treated melanoma cells; data not shown
Description: Down-regulation of BCL2-A1 results in caspase 9 activation but not caspase 3 or 8 cleavage (Duriez, et al., A1 functions at the mitochondria to delay endothelial apoptosis in response to tumor necrosis factor, J. Biol. Chem., 275:18099-18107 (2000); Pagliari, et al., Macrophages require constitutive NF-kappaB activation to maintain A1 expression and mitochondrial homeostasis, Mol. Cell Biol., 20:8855-8865 (2000)). […] Whether caspase 6 activation occurs via reduction in BCL-2A1 expression or by alternative pathways remains to be determined.

BCL-2A1 = assay: Real-time RT-PCR of BCL-2A1 transcripts; assay type: cell-based, human; conditions: BQ788 3 days
Method: Equal amounts of RNA from cells that were treated with BQ788 for 3 days were subjected to real-time RT-PCR analysis for the detection of BCL-2A1 (A) and ADP ribosyltransferase 3 (B) transcripts. Total amounts are represented in A while relative (to control) values are shown in B. Differences in expression levels are shown as x fold decrease and are statistically significant (p<0.05) unless a column in marked as non significant (N.S.). Lysates of BQ788 treated cells and controls were subjected to an apoptosis ELISA detection test (C). SK-MEL-28 cells were cultured with pan caspase inhibitor (D) or with caspase 6 inhibitor (E) with or without BQ788 for 2.5 days. […] SK-MEL-28 cells were cultured for 3 days in the presence of BQ788 and assayed for caspase 6 activity (F). The difference between the columns is statistically significant (p<0.05).
RNA was prepared from the different cell lines in different culture conditions using SV total RNA isolation kit (Promega) according to the manufacturer's protocol. For each sample RNA concentration was determined using the total RNA nano procedure of an Agilent bioanalyzer. A stock of SK-MEL-28 RNA aliquots was prepared containing 10, 20, 50, 100, 200, 500 and 1000 ng/12 μl for use as a standard curve and kept in −80° C. For the experimental unknown samples, a stock of 100 ng/12 μl RNA aliquots from each cell line and condition was prepared and stored at −80° C. For each real-time experiment one series of standard curve and unknown experimental series of aliquots was put on ice for use. Complementary DNA was prepared by adding to each tube 0.5 μl of random hexamers (Promega) and 1 μl of 10 mM dNTP mix (Promega) and incubating at 65° C. for 5 min. 4 μl of 5× M-MLV buffer (Promega), 1 μl of the RNase inhibitor RNasin (Promega) and 1 μl of M-MLV RT RNase H (Promega) were then added and the solution was incubated at 42° C. for 50 min followed by 15 min at 70° C. For real time reactions 15 μl of each cDNA sample were transferred to 3 wells in a 386 well plate. To each well we added 10 μl of TaqMan universal PCR master mix (Applied Biosystems), 1 μl of primers+probe mix (Assays-on-Demand from Applied Biosystems: EDNRB Hs00240747, BCL-2A1 Hs00187845, PARP-3 Hs00154151, VEGF Hs00173626, HIF-1α Hs00153153 and Gravin Hs00374507) and 4 μl of nuclease free water (Promega). […] A standard curve of Ct versus RNA quantity was established and accordingly the Ct in the unknown samples was correlated to quantity of transcript.
If the observed reduction in BCL-2A1 and PARP-3 expression is implicated in ETRB blockade-dependent cell death, one would expect the more resistant cell lines to display less reduction in BCL-2A1 and PARP-3 levels. To test this possibility and to validate our microarray results, we used quantitative real-time PCR.

[1] = hypertension patients and healthy volunteers; cited from earlier work
ETRB = assay: Real-time RT-PCR of ETRB transcripts; assay type: cell-based, human; conditions: BQ788 treatment
Method: Real-time RT-PCR detection of ETRB transcripts (see legends FIG. 2) (A). ETRB protein expression compared to tubulin in SK-MEL-28 cells after 3, 5 and 7 days with (+) or without (−) BQ788 (B).
RNA was prepared from the different cell lines in different culture conditions using SV total RNA isolation kit (Promega) according to the manufacturer's protocol. For each sample RNA concentration was determined using the total RNA nano procedure of an Agilent bioanalyzer. A stock of SK-MEL-28 RNA aliquots was prepared containing 10, 20, 50, 100, 200, 500 and 1000 ng/12 μl for use as a standard curve and kept in −80° C. For the experimental unknown samples, a stock of 100 ng/12 μl RNA aliquots from each cell line and condition was prepared and stored at −80° C. For each real-time experiment one series of standard curve and unknown experimental series of aliquots was put on ice for use. Complementary DNA was prepared by adding to each tube 0.5 μl of random hexamers (Promega) and 1 μl of 10 mM dNTP mix (Promega) and incubating at 65° C. for 5 min. 4 μl of 5× M-MLV buffer (Promega), 1 μl of the RNase inhibitor RNasin (Promega) and 1 μl of M-MLV RT RNase H (Promega) were then added and the solution was incubated at 42° C. for 50 min followed by 15 min at 70° C. For real time reactions 15 μl of each cDNA sample were transferred to 3 wells in a 386 well plate. To each well we added 10 μl of TaqMan universal PCR master mix (Applied Biosystems), 1 μl of primers+probe mix (Assays-on-Demand from Applied Biosystems: EDNRB Hs00240747, BCL-2A1 Hs00187845, PARP-3 Hs00154151, VEGF Hs00173626, HIF-1α Hs00153153 and Gravin Hs00374507) and 4 μl of nuclease free water (Promega). Wells containing water instead of cDNA served as negative controls. The samples were subjected to 40 cycles of 15 sec at 95° C. and 1 min at 60° C. A standard curve of Ct versus RNA quantity was established and accordingly the Ct in the unknown samples was correlated to quantity of transcript.

## CCCC[C@@H](NC(=O)[C@@H](Cc1cn(C(=O)OC)c2ccccc12)NC(=O)[C@H](CC(C)(C)C)NC(=O)N1[C@H](C)CCC[C@@H]1C)C(=O)O [BQ788, N-cis-2,6-dimethylpiperidinocarbonyl-L-γ-methylleucyl-D-1-methoxycarbonyltrptophanyl-D-norleucine]
Caspase 3
  caspase 3 activation: did not reveal caspase 3 activation
BCL-2A1; Cut-met line
  decrease in BCL-2A1 levels: 1.8 fold
BCL-2A1; LN-met
  decrease in BCL-2A1 levels: 2.9 fold
BCL-2A1; SK-MEL-28
  decrease in BCL-2A1 levels: 5.7 fold
BCL-2A1; primary melanoma cells
  BCL-2A1 expression change: did not change
[1]
  toxicity in clinical trials: not found to be toxic
ETRB; Cut-met line
  reduction in ETRB mRNA expression: 1.49 fold
ETRB; LN-met line
  reduction in ETRB mRNA expression: 1.85 fold
ETRB; SK-MEL-28 cells
  reduction in ETRB mRNA expression: 11 fold
ETRB; primary melanoma cells
  ETRB expression level change: did not show any change
